Key:
Cardiac muscle cell [1] = experiment: Cytoprotective activity against OGD/reperfusion induced injury in Sprague-Dawley rat cardiomyocytes assessed as effect on cell viability at 0.1 uM pretreated for 24 hrs followed by OGD for 2 hrs and subsequent reperfusion for 24 hrs (reference value: 43.9 to 45.4 +/- 1.1 %); type: functional
Cardiac muscle cell [2] = experiment: Cytotoxicity against Sprague-Dawley rat cardiomyocytes assessed as inhibition of cell growth at 10 uM treated for 50 hrs by MTT assay; type: cell-based
Rattus norvegicus = experiment: Cardioprotective activity in Sprague-Dawley rat model of LAD coronary artery ligation-induced ischemia/reperfusion assessed as infarct size of left ventricle size at 40 mg/kg, ig pretreated twice a day for 3 days and measured 24 hrs post-reperfusion by TTC staining based assay (reference value: 49.1 %); type: functional
Cardiac muscle cell [3] = experiment: Cytoprotective activity against OGD/reperfusion induced injury in Sprague-Dawley rat cardiomyocytes assessed as effect on cell viability at 1 uM pretreated for 24 hrs followed by OGD for 2 hrs and subsequent reperfusion for 24 hrs (reference value: 43.9 to 45.4 +/- 1.1 %); type: functional
Cardiac muscle cell [4] = experiment: Cytoprotective activity against OGD/reperfusion induced injury in Sprague-Dawley rat cardiomyocytes assessed as effect on cell viability at 10 uM pretreated for 24 hrs followed by OGD for 2 hrs and subsequent reperfusion for 24 hrs (reference value: 43.9 to 45.4 +/- 1.1 %); type: functional

SMILES | Activity (Cardiac muscle cell [1]) | Activity (Cardiac muscle cell [2]) | Activity (Rattus norvegicus) | Activity (Cardiac muscle cell [3]) | Activity (Cardiac muscle cell [4])
CC1(C)CCC[C@](C)([C@H]2CC[C@]3(C)[C@@H]2[C@H](O)C[C@@H]2[C@@]4(C)CC[C@H](O)C(C)(C)[C@@H]4[C@H](O)C[C@]23C)O1 | 47.8% | Non-Toxic | 30.6% | 52.3% | 61.9%
CNc1nc2c(s1)C[C@]1(C)[C@H]3C[C@@H](O)[C@@H]4[C@@H]([C@@]5(C)CCCC(C)(C)O5)CC[C@@]4(C)[C@]3(C)CC(=O)[C@H]1C2(C)C | 47% | Non-Toxic | – | 52.7% | 58.8%
CC1(C)CCC[C@](C)([C@H]2CC[C@]3(C)[C@@H]2[C@H](O)C[C@@H]2[C@@]4(C)Cc5c([nH]c6ccc(S(N)(=O)=O)cc56)C(C)(C)[C@@H]4C(=O)C[C@]23C)O1 | 55.1% | Non-Toxic | – | 61.5% | 66.3%
CC1(C)CCC[C@](C)([C@H]2CC[C@]3(C)[C@@H]2[C@H](O)C[C@@H]2[C@@]4(C)Cc5sc(CC#N)nc5C(C)(C)[C@@H]4C(=O)C[C@]23C)O1 | 58.6% | Non-Toxic | – | 64.6% | 70.1%
CC1(C)CCC[C@](C)([C@H]2CC[C@]3(C)[C@@H]2[C@H](O)C[C@@H]2[C@@]4(C)Cc5sc(NC(=N)N)nc5C(C)(C)[C@@H]4C(=O)C[C@]23C)O1 | 48.9% | Non-Toxic | – | 52.5% | 57.2%
CC1(C)CCC[C@](C)([C@H]2CC[C@]3(C)[C@@H]2[C@H](O)C[C@@H]2[C@@]4(C)Cc5sc(-c6ccc(C(F)(F)F)cc6)nc5C(C)(C)[C@@H]4C(=O)C[C@]23C)O1 | 51.6% | Non-Toxic | – | 57.9% | 62.9%
CC1(C)CCC[C@](C)([C@H]2CC[C@]3(C)[C@@H]2[C@H](O)C[C@@H]2[C@@]4(C)Cc5c([nH]c6ccc(Cl)cc56)C(C)(C)[C@@H]4C(=O)C[C@]23C)O1 | 51.7% | Non-Toxic | – | 57.3% | 62.7%
CC1(C)CCC[C@](C)([C@H]2CC[C@]3(C)[C@@H]2[C@H](O)C[C@@H]2[C@@]4(C)Cc5nccnc5C(C)(C)[C@@H]4[C@@H](O)C[C@]23C)O1 | 54.9% | Non-Toxic | – | 62.3% | 70.3%
CC1(C)CCC[C@](C)([C@H]2CC[C@]3(C)[C@@H]2[C@H](O)C[C@@H]2[C@@]4(C)Cc5sc(Br)nc5C(C)(C)[C@@H]4C(=O)C[C@]23C)O1 | 59.5% | Non-Toxic | – | 69.2% | 77.2%
CC1(C)CCC[C@](C)([C@H]2CC[C@]3(C)[C@@H]2[C@H](O)C[C@@H]2[C@@]4(C)Cc5cnn(-c6ccccc6)c5C(C)(C)[C@@H]4[C@H](O)C[C@]23C)O1 | 50.8% | Non-Toxic | – | 57.3% | 62.5%
COc1ccc(-c2nc3c(s2)C[C@]2(C)[C@H]4C[C@@H](O)[C@@H]5[C@@H]([C@@]6(C)CCCC(C)(C)O6)CC[C@@]5(C)[C@]4(C)CC(=O)[C@H]2C3(C)C)cc1 | 64.9% | Non-Toxic | – | 71.3% | 78.5%
CC(C)c1nc2c(s1)C[C@]1(C)[C@H]3C[C@@H](O)[C@@H]4[C@@H]([C@@]5(C)CCCC(C)(C)O5)CC[C@@]4(C)[C@]3(C)CC(=O)[C@H]1C2(C)C | 50.6% | Non-Toxic | – | 59.5% | 66%
CC1(C)CCC[C@](C)([C@H]2CC[C@]3(C)[C@@H]2[C@H](O)C[C@@H]2[C@@]4(C)Cc5cnn(-c6ccc(F)cc6)c5C(C)(C)[C@@H]4[C@H](O)C[C@]23C)O1 | 56.5% | Non-Toxic | – | 65.3% | 73.2%
CCOC(=O)c1nc2c(s1)C[C@]1(C)[C@H]3C[C@@H](O)[C@@H]4[C@@H]([C@@]5(C)CCCC(C)(C)O5)CC[C@@]4(C)[C@]3(C)CC(=O)[C@H]1C2(C)C | 59.1% | Non-Toxic | – | 75.3% | 86.6%
CC1(C)CCC[C@](C)([C@H]2CC[C@]3(C)[C@@H]2[C@H](O)C[C@@H]2[C@@]4(C)Cc5nccnc5C(C)(C)[C@@H]4C(=O)C[C@]23C)O1 | 56.4% | Non-Toxic | – | 64% | 71.5%
CC1(C)CCC[C@](C)([C@H]2CC[C@]3(C)[C@@H]2[C@H](O)C[C@@H]2[C@@]4(C)Cc5c[nH]nc5C(C)(C)[C@@H]4[C@H](O)C[C@]23C)O1 | 48.6% | Non-Toxic | – | 55.9% | 61.7%
CC1(C)CCC[C@](C)([C@H]2CC[C@]3(C)[C@@H]2[C@H](O)C[C@@H]2[C@@]4(C)Cc5sc(-c6cccnc6)nc5C(C)(C)[C@@H]4C(=O)C[C@]23C)O1 | 46.9% | Non-Toxic | – | 51.3% | 57.2%
CC1(C)CCC[C@](C)([C@H]2CC[C@]3(C)[C@@H]2[C@H](O)C[C@@H]2[C@@]4(C)Cc5c([nH]c6c(Cl)cc(F)cc56)C(C)(C)[C@@H]4C(=O)C[C@]23C)O1 | 52.9% | Non-Toxic | – | 57.1% | 62.1%
CCOC(=O)c1[nH]nc2c1C[C@]1(C)[C@H]3C[C@@H](O)[C@@H]4[C@@H]([C@@]5(C)CCCC(C)(C)O5)CC[C@@]4(C)[C@]3(C)C[C@@H](O)[C@H]1C2(C)C | 48% | Non-Toxic | – | 54.1% | 60.4%
CC1(C)CCC[C@](C)([C@H]2CC[C@]3(C)[C@@H]2[C@H](O)C[C@@H]2[C@@]4(C)Cc5c([nH]c6c(F)cccc56)C(C)(C)[C@@H]4C(=O)C[C@]23C)O1 | 53.5% | Non-Toxic | – | 58% | 62.6%
Cc1ccc2[nH]c3c(c2c1)C[C@]1(C)[C@H]2C[C@@H](O)[C@@H]4[C@@H]([C@@]5(C)CCCC(C)(C)O5)CC[C@@]4(C)[C@]2(C)CC(=O)[C@H]1C3(C)C | 58.9% | Non-Toxic | – | 66.4% | 73.8%
CC1(C)CCC[C@](C)([C@H]2CC[C@]3(C)[C@@H]2[C@H](O)C[C@@H]2[C@@]4(C)Cc5c(n[nH]c5CO)C(C)(C)[C@@H]4[C@H](O)C[C@]23C)O1 | 55% | Non-Toxic | – | 64.6% | 75.7%
CC1(C)CCC[C@](C)([C@H]2CC[C@]3(C)[C@@H]2[C@H](O)C[C@@H]2[C@@]4(C)Cc5c([nH]c6ccc(OC(F)(F)F)cc56)C(C)(C)[C@@H]4C(=O)C[C@]23C)O1 | 64.4% | Non-Toxic | – | 70.8% | 78.4%
COc1ccc2[nH]c3c(c2c1)C[C@]1(C)[C@H]2C[C@@H](O)[C@@H]4[C@@H]([C@@]5(C)CCCC(C)(C)O5)CC[C@@]4(C)[C@]2(C)CC(=O)[C@H]1C3(C)C | 70.1% | Non-Toxic | – | 79.6% | 88%
CC1(C)CCC[C@](C)([C@H]2CC[C@]3(C)[C@@H]2[C@H](O)C[C@@H]2[C@@]4(C)Cc5c([nH]c6ccc(F)cc56)C(C)(C)[C@@H]4C(=O)C[C@]23C)O1 | 54.6% | Non-Toxic | – | 58.8% | 63.6%
CC1(C)CCC[C@](C)([C@H]2CC[C@]3(C)[C@@H]2[C@H](O)C[C@@H]2[C@@]4(C)Cc5sc(N)nc5C(C)(C)[C@@H]4C(=O)C[C@]23C)O1 | 60.2% | Non-Toxic | – | 70.2% | 77.7%
CC1(C)CCC[C@](C)([C@H]2CC[C@]3(C)[C@@H]2[C@H](O)C[C@@H]2[C@@]4(C)Cc5c(CO)noc5C(C)(C)[C@@H]4[C@H](O)C[C@]23C)O1 | 55.1% | Non-Toxic | – | 60.9% | 66.8%
CC1(C)CCC[C@](C)([C@H]2CC[C@]3(C)[C@@H]2[C@H](O)C[C@@H]2[C@@]4(C)Cc5sc(N)nc5C(C)(C)[C@@H]4[C@@H](O)C[C@]23C)O1 | 52.4% | Non-Toxic | – | 57.6% | 62.4%
CC1(C)CCC[C@](C)([C@H]2CC[C@]3(C)[C@@H]2[C@H](O)C[C@@H]2[C@@]4(C)Cc5sc(-c6ccc(Cl)cc6)nc5C(C)(C)[C@@H]4C(=O)C[C@]23C)O1 | 49.5% | Non-Toxic | – | 54.8% | 60.3%

Source: ChEMBL document CHEMBL4373736, “Synthesis and biological evaluation of panaxatriol derivatives against myocardial ischemia/reperfusion injury in the rat” (Eur J Med Chem, 2020)
